What was measured:
[1] = system: powdery mildew of wheat (Erysiphe graminis var. tritici); assay: Efficacy against powdery mildew of wheat (protective spray on potted wheat seedlings); assay type: in vivo; details: wheat seedlings cv. Frühgold, sprayed 24 hours before dusting with oidia, evaluated after 7 days, untreated 70
Procedure: (§1) The active ingredients are formulated as a 20% strength emulsion in a mixture of 70% by weight of cyclohexanone, 20% by weight of Nekanil® LN (Lutensol® AP6, wetting agent having emulsifier and dispersing action based on ethoxylated alkylphenols) and 10% by weight of Emulphor® EL (Emulan® EL, emulsifier based on ethoxylated fatty alcohols) and diluted with water to give the desired concentration. The experiments were evaluated visually.
Leaves of wheat seedlings cv. “Frühgold” in pots were sprayed with aqueous spray mixture comprising 80% of active ingredient of Table 1 and 20% of emulsifier in the dry matter and, 24 hours after the spray coating had dried on, dusted with oidia (spores) of powdery mildew of wheat (Erysiphe graminis var. tritici). The test plants were subsequently placed in a greenhouse at from 20 to 22° C. and a relative atmospheric humidity of 75 to 80%. After 7 days, the extent of mildew development was determined.

[2] = system: leaf rust of wheat (Puccinia recondite); assay: Efficacy against leaf rust of wheat (spray after infection of potted wheat seedlings); assay type: in vivo; details: wheat seedlings cv. Kanzler, sprayed 24 hours after dusting with spores, evaluated after 8 days, untreated 70
Procedure: as §1
Leaves of wheat seedlings cv. “Kanzler” in pots were dusted with leaf rust spores (Puccinia recondite). The pots were then placed for 24 hours in a chamber with high atmospheric humidity (90 to 95%) at from 20 to 22° C. During this time, the spores germinated, and the germ tubes penetrated the leaf tissue. The infected plants were subsequently sprayed to runoff point with aqueous spray mixtures comprising 80% of active ingredient of Table 1 and 20% of emulsifier in the dry matter. After the spray coating had dried on, the test plants were placed in a greenhouse at from 20 to 22° C. and a relative atmospheric humidity of 65 to 70%. After 8 days, the extent of rust development on the leaves was determined.

Compound	% infection of the leaves after application of an aqueous preparation comprising 250 ppm of active ingredient [1]	melting point	% infection of the leaves after application of an aqueous preparation comprising . . . ppm of active ingredient ([2]; 63 ppm)	% infection of the leaves after application of an aqueous preparation comprising . . . ppm of active ingredient ([2]; 16 ppm)
CNC(=O)C(=NOC)c1ccccc1CON=C(C)C(=NOC)c1ccc(N(OC)C(=O)OC)cc1 [I.25]	5%	–	–	–
CNC(=O)/C(=N/OC)c1ccccc1CO/N=C(C)/C(=N/OC)c1ccc(N(C)C(=O)C(C)(C)C)cc1 [I.10]	–	168 to 170 °C	–	–
CCC(=O)Nc1ccc(C(=NOC)C(C)=NOCc2ccccc2C(=COC)C(=O)OC)cc1 [I.16]	5%	–	–	–
CCC(=O)N(C)c1ccc(C(=NOC)C(C)=NOCc2ccccc2C(=NOC)C(=O)NC)cc1 [I.5]	5%	–	0%	–
CO/N=C(/C(C)=N/OCc1ccccc1/C(=N\OC)C(=O)OC)c1ccc(N(C)C(=O)C(C)(C)C)cc1 [I.12]	5%	111 to 113 °C	15%	–
CC=C(C(=O)OC)c1ccccc1CON=C(C)C(=NOC)c1ccc(C=NOC)cc1 [I.58]	0%	–	0%	–
CNC(=O)C(=NOC)c1ccccc1CON=C(C)C(=NOC)c1ccc(C=NOC)cc1 [I.54]	5%	–	–	0%
CO/N=C(\C)c1ccc(C(=N\OC)/C(C)=N/OCc2ccccc2/C(=N\OC)C(=O)OC)cc1 [I.51]	–	112 to 114 °C	–	–
CCN(C(=O)C(C)(C)C)c1ccc(C(=NOC)C(C)=NOCc2ccccc2C(=NOC)C(=O)NC)cc1 [I.26]	15%	–	–	–
C#CCON=C(C(C)=NOCc1ccccc1C(=COC)C(=O)OC)c1ccc(C(C)=NOCC)cc1 [I.56]	–	–	15%	–
CCCN(C(=O)CC)c1ccc(C(=NOC)C(C)=NOCc2ccccc2C(=NOC)C(=O)NC)cc1 [I.15]	5%	–	–	–
C#CCON=C(C(C)=NOCc1ccccc1C(=COC)C(=O)OC)c1ccc(C(C)=NOC)cc1 [I.57]	0%	–	15%	–
CC=C(C(=O)OC)c1ccccc1CON=C(C)C(=NOC)c1ccc(N(C)C(=O)C(C)(C)C)cc1 [I.44]	–	–	5%	–
CCON=C(C)c1ccc(C(=NOC)C(C)=NOCc2ccccc2C(=NOC)C(=O)NC)cc1 [I.55]	15%	–	–	0%
CC=C(C(=O)OC)c1ccccc1CON=C(C)C(=NOC)c1ccc(NC(=O)CC)cc1 [I.20]	15%	–	–	–
CNC(=O)C(=NOC)c1ccccc1CON=C(C)C(=NOC)c1ccc(N(C)C(C)=O)cc1 [I.29]	–	–	–	5%
CON=Cc1ccc(C(=NOC)C(C)=NOCc2ccccc2C(=NOC)C(=O)OC)cc1 [I.53]	15%	–	–	–
CC=C(C(=O)OC)c1ccccc1CON=C(C)C(=NOC)c1ccc(N(CCC)C(=O)CC)cc1 [I.23]	15%	–	–	–

Compound	% infection of the leaves after application of an aqueous preparation comprising 250 ppm of active ingredient [1]	melting point	% infection of the leaves after application of an aqueous preparation comprising . . . ppm of active ingredient ([2]; 63 ppm)	% infection of the leaves after application of an aqueous preparation comprising . . . ppm of active ingredient ([2]; 16 ppm)
CCC(=O)N(CC)c1ccc(C(=NOC)C(C)=NOCc2ccccc2C(=COC)C(=O)OC)cc1 [I.18]	5%	–	–	–
CC=C(C(=O)OC)c1ccccc1CON=C(C)C(=NOC)c1ccc(N(C)C(=O)CC)cc1 [I.21]	5%	–	–	–
CC=C(C(=O)OC)c1ccccc1CON=C(C)C(=NOC)c1ccc(N(CC)C(=O)C(C)(C)C)cc1 [I.45]	15%	–	15%	–
CCC(=O)N(C)c1ccc(C(=NOC)C(C)=NOCc2ccccc2C(=COC)C(=O)OC)cc1 [I.17]	15%	–	–	–
COC=C(C(=O)OC)c1ccccc1CON=C(C)C(=NOC)c1ccc(C=NOC)cc1 [I.59]	0%	–	10%	–
CC=C(C(=O)OC)c1ccccc1CON=C(C)C(=NOC)c1ccc(N(CC)C(=O)CC)cc1 [I.22]	15%	–	–	–
CCCCN(C(=O)C(C)(C)C)c1ccc(C(=NOC)C(C)=NOCc2ccccc2C(=NOC)C(=O)NC)cc1 [I.27]	5%	–	–	3%
COC=C(C(=O)OC)c1ccccc1CON=C(C)C(=NOC)c1ccc(NC(=O)C(C)(C)C)cc1 [I.13]	0%	–	15%	5%
CCCN(C(=O)C(C)(C)C)c1ccc(C(=NOC)C(C)=NOCc2ccccc2C(=NOC)C(=O)NC)cc1 [I.32]	15%	–	–	0%
CC=C(C(=O)OC)c1ccccc1CON=C(C)C(=NOC)c1ccc(NC(=O)C(C)(C)C)cc1 [I.43]	15%	–	5%	–
CC=C(C(=O)OC)c1ccccc1CON=C(C)C(=NOC)c1ccc(N(C)C(C)=O)cc1 [I.40]	15%	–	0%	–
CNC(=O)/C(=N/OC)c1ccccc1CO/N=C(C)/C(=N/OC)c1ccc(/C(C)=N/OC)cc1 [I.52]	15%	–	–	0%
CO/N=C(/C(C)=N/OCc1ccccc1/C(=N\OC)C(=O)OC)c1ccc(NC(=O)C(C)(C)C)cc1 [I.11]	–	114 to 116 °C	–	–
CCCN(C(C)=O)c1ccc(C(=NOC)C(C)=NOCc2ccccc2C(=NOC)C(=O)NC)cc1 [I.31]	15%	–	–	0%
CCCN(C(=O)CC)c1ccc(C(=NOC)C(C)=NOCc2ccccc2C(=COC)C(=O)OC)cc1 [I.19]	5%	–	–	–
CC=C(C(=O)OC)c1ccccc1CON=C(C)C(=NOC)c1ccc(N(CC)C(C)=O)cc1 [I.41]	15%	–	15%	–
CCC(=O)N(CC)c1ccc(C(=NOC)C(C)=NOCc2ccccc2C(=NOC)C(=O)NC)cc1 [I.8]	0%	–	0%	–
CCN(C(C)=O)c1ccc(C(=NOC)C(C)=NOCc2ccccc2C(=NOC)C(=O)NC)cc1 [I.30]	–	–	–	15%

Source: patent publication US6509379B1, “Phenylacetic acid derivatives, process and intermediate products for their preparation, and their use as fungicides and pesticides” (BASF Aktiengesellschaft, priority 1995, dated 2003)
